In patent US8426427B2, “Fused heterocyclic derivative, pharmaceutical composition comprising the derivative, and use of the composition for medical purposes” (Kissei Pharmaceutical Co., Ltd., priority 2007, dated 2013):

Columns and labels:
human GnRHR1 = biological target: T1, human GnRHR1 (Homo sapiens, UniProt P30968); assay: Inhibitory effect for the change of calcium levels in GnRH-stimulated cells (hGnRHR1#1 HEK293 cells); format: cell-based; details: hGnRHR1#1 cells (HEK293 stably expressing human GnRHR1), 10 nM GnRH added, FLIPR calcium dye; read-out: IC50 (drug concentration at which 50% GnRH-stimulated intracellular calcium flux was inhibited)
T1 construct: expressed in transfected cells
T1 sequence (P30968 1-328): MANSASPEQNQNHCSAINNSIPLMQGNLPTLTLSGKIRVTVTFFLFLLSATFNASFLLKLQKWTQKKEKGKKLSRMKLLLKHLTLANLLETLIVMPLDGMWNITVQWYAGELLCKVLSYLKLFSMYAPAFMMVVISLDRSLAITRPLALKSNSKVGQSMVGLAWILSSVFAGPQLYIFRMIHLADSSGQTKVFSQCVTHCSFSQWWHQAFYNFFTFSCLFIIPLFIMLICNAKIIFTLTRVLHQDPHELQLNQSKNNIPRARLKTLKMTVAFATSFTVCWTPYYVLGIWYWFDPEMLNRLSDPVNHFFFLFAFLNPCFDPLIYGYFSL
Description: 1) Cloning and Construction of the Vector Expressing Human GnRH Receptor1 (GnRHR1)
Using cDNA derived from human pituitary (BECTON DICKINSON) as a template, the DNA fragment coding 45 to 1115 by of human GnRHR1 (Accession No. L03380), which was reported by Kakar et al., was amplified by PCR method and inserted into the multi-cloning site of pcDNA3.1(+) (Invitrogen). The DNA sequence inserted was perfectly matched to the previously reported sequence.
2) Establishment of Cell Line Stably Expressing Human GnRH Receptor1 HEK293 Cells
The expression vector of human GnRHR1 gene, was digested by XhoI into a linear DNA. The linear DNA was transfected into HEK293 cells by means of lipofection (Lipofectamine2000: Invitrogen). Neomycin resistant cell lines were selected by culture in the medium containing G418 (Invitrogen) at 1 mg/mL, and then the change of calcium levels in GnRH-stimulated cells was measured by the method described below.
3) Assay of Inhibitory Effect for the Change of Calcium Levels in GnRH-Stimulated Cells
Antagonizing effect of compounds for human GnRHR1 was evaluated by depression of calcium levels in GnRH-stimulated cells. hGnRHR1#1 cells were seeded into a 96-well culture plate at a density of 1.5×10^5 cells/well and cultured for a day. […] Then, intracellular calcium levels were determined under the following condition by using FLEX STATION (Molecular Devices). […]

[1] = Assay for oral absorbability: plasma drug concentration after oral administration to rats; format: in vivo, SD rats; details: for C360 (plasma drug concentration at 360 minutes after administration) / Cmax: fasted male SD rats, oral 3 mg/kg, plasma; for availability by oral administration compared with Control compound 1 / sustainability of blood concentration 6 hours after oral administration compared with Control compound / Cmax: rat; for Cmax: LC-MS/MS, read-out: Cmax (maximum plasma drug concentration)
Experimental: Assay for Oral Absorbability
1) Preparation of the Samples for Measurement of the Drug Concentration after Oral Administration
As experimental animal, overnight fasted SD rats (Charles River, male, 7 weeks of age, 170-210 g) were used. Three mg of a test compound was dissolved by adding 0.2 mL of N,N-dimethylacetoamide, 9.794 mL of 0.5% aqueous methylcellulose solution and 0.006 mL of 2N NaOH, and then 0.3 mg/mL solution was prepared. The body weights of rats were measured, and the solution of the test compound was administered orally at the dose of 10 mL/kg (3 mg/kg). The oral administration was performed with gastric tube for rat and 2.5 mL syringe. The sampling times for collection of blood were 15, 30, 60, 120, 240 and 360 minutes after the oral administration. The blood was centrifuged, and the plasma was used as the sample for measurement of the drug concentration in blood.
2) Measurement of the Drug Concentration
To 0.025 mL of the plasma obtained in 1) described above, 0.1 mL of an adequate internal standard material was added according to the usual method, and then deproteinization was performed by adding 0.875 mL of acetonitrile. After centrifugation, 0.005 mL of the supernatant was injected into LC-MS/MS. The drug concentration in plasma was measured by LC-MS/MS method under the conditions as follows. To 0.05 mL of the blank plasma were added the internal standard material and various test compounds adequately according to the usual method, similar operating described above was done, and then the standard curves were prepared.
In the oral administration, the maximum plasma drug concentration (Cmax) and the plasma drug concentration at 360 minutes after administration (C360) are shown in Tables 8 and 9, respectively.

SMILES | IC50 (human GnRHR1) [nM] | C360 (plasma drug concentration at 360 minutes after administration) [1] [ng/mL] | availability by oral administration compared with Control compound 1 [1] | sustainability of blood concentration 6 hours after oral administration compared with Control compound [1] | Cmax [1] [ng/mL]
COCCOc1ccc(F)c(F)c1CN(C)c1ccc(F)c(-n2c(=O)[nH]c3csc(C(=O)O)c3c2=O)c1 [Example 1, 5-Carboxy-3-(2-fluoro-5-{N-[2,3-difluoro-6-(2-methoxyethoxy)benzyl]-N-methylamino}-phenyl)thieno[3,4-d]pyrimidine-2,4(1H,3H)-dione] | 51 | 1010 | more excellent availability than the Control compound 1 | more superior in sustainability than the Control compound | 17600
CN(Cc1c(F)cccc1F)c1ccc(F)c(-n2c(=O)[nH]c3csc(C(=O)O)c3c2=O)c1 [Example 2] | 133 | 2170 | more excellent availability than the Control compound 1 | more superior in sustainability than the Control compound | 14900
